Where “and” joins values, the source holds several entries; their conditions need not be identical. Equal entries are not always repeated.
Experiments:
GABARAP = assay: ITC binding to GABARAP; set-up: species or system human
LGG-2 = biological target: T1, LGG-2 (Caenorhabditis elegans, UniProt Q23536); assay: ITC binding to purified LGG-2; set-up: species or system C. elegans
T1 sequence (Q23536 1-130): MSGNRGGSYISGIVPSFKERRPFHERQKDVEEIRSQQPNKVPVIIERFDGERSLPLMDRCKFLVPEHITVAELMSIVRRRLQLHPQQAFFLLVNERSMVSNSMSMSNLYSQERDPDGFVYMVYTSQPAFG
From the text: (§1) C. elegans provides an ideal platform to study autophagy and especially to investigate roles of different members of Atg8 in autophagy, because worms contain both GABARAP and LC3 subfamily Atg8s and yet simple enough with one gene for each subfamily (worm lgg-1 and lgg-2 are […] of GABARAP and LC3, respectively). It has also been shown earlier on that lgg-1 and lgg-2 act non-redundantly in autophagy (Wu et al., 2015). Prior to performing autophagy assays in worms, we measured the bindings of various AnkB/G LIR peptides to purified LGG-1 and LGG-2 using the same method as we have described for FIGS. 1&3.

[1] = test system: GABARAP-positive puncta in COS7 cells; assay: GABARAP-positive puncta in starved COS7 cells; format: cell-based; details: COS7 cells over-expressing mCherry-tagged peptide, nutrients deprivation
From the text: (§2) We used the well-established cultured COS7 cells for assessing autophagy inhibitions by the AnkB/G LIR peptides over-expressed in the cells. We quantified the numbers of endogenous LC3- or GABARAP-positive puncta, which represent LC3 or GABARAP-containing autophagic structures, as readouts to quantify autophagy inhibitions (Klionsky et al., 2016; Mizushima et al., 2010). After nutrients deprivation, obvious accumulations of LC3- or GABARAP-positive puncta could be observed in cells over-expressing mCherry only, indicating induction of autophagy by starvation (FIG. 6C6&E6). […] In contrast, expression of the mCherry-AnkB WR peptide had no impact on the LC3- or GABARAP-puncta numbers (i.e. with the same puncta numbers as expressing the mCherry vector control; FIG. 6C-F).

LC3s (LC3A, LC3B, LC3C) [2] = assay: ITC binding to LC3s; set-up: species or system human; details: LC3A, LC3B, LC3C
[3] = test system: LC3s (LC3A, LC3B, LC3C) (Homo sapiens); assay: ITC binding to LC3s
[4] = test system: LC3-positive puncta in COS7 cells; assay: LC3-positive puncta in starved COS7 cells; format: cell-based; details: COS7 cells over-expressing mCherry-tagged peptide, nutrients deprivation
From the text: as §2

[5] = test system: p62-positive puncta in COS7 cells; assay: p62-positive puncta in starved COS7 cells; format: cell-based; details: starvation; for p62-positive puncta versus mCherry vector control: COS7 cells expressing mCherry-tagged peptide
From the text: We further quantified the level of p62, one of the best studied selective autophagy substrates, to monitor the autophagic flux in COS7 cells expressing various AnkB/G LIR peptides under the starvation condition (Klionsky et al., 2016; Mizushima et al., 2010). Upon autophagy induction, p62 forms aggregates via its LIR motif-mediated interactions to Atg8s and subsequent incorporation into autophagosomes (Bjorkoy et al., 2005; Pankiv et al., 2007). Only a relatively low and steady level of p62 aggregates is formed if autophagy flux is normal (i.e. p62-positive autophagosomes are steadily cleared by fusing with lysosomes; (Bjorkoy et al., 2005)), and this is indeed the case when cells were expressed with the mCherry vector control (FIG. 7F). […] This is consistent with a previous siRNA-based study showing that knockdown of LC3 but not GABARAP causes p62 accumulation in COS7 cells (Maruyama et al., 2014). Taken together, the above cell-based assays reinforce our earlier conclusion derived from biochemical and structural studies, that the AnkB WT peptide can function as potent autophagy inhibitor by targeting all members of the Atg8 family and the AnkG WT or ER peptides can selectively target the GABARAPs and spare the LC3s.

SQST-1::GFP = SQST-1::GFP aggregate accumulation in C. elegans expressing the peptides; format: in vivo
From the text: We next determined whether the AnkB WT peptide blocks autophagy in C. elegans. Autophagy is required for degradation of a variety of protein substrates, including the C. elegans p62 homolog SQST-1 during development (Tian et al., 2010). In the wild type animals, SQST-1::GFP is weakly expressed and diffusely localized in the cytoplasm, while numerous SQST-1 aggregates accumulate in autophagy mutants (Tian et al., 2010). The AnkB WT peptide fused with the Cherry reporter (Cherry::AnkB WT) or Cherry::AnkB WR was expressed under the control of the nfya-1 promoter, which is expressed ubiquitously from the embryonic to adult stages. The expression plasmids were injected into animals carrying integrated SQST-1::GFP reporter (bpIs151) and transgenic lines were obtained and analyzed.
Similarly, we also tested the blocking effect of AnkG peptides in C. elegans. […] This observation is somewhat different from that in mammalian heterologous cells. This may be explained by the different roles of the two families in different organisms. In mammal, p62 degradation is dependent on LC3 but not GABARAP (Maruyama et al., 2014), so blocking GABARAP binding has minimal effect on p62 degradation. However, in C. elegans, LGG-1 acts upstream to LGG-2 (Manil-Segalen et al., 2014; Wu et al., 2015), so blocking either of them will lead to defect in SQST-1 degradation.
Although a large collection of autophagy mutants were isolated from genetic screens (Tian et al., 2010), assays to inhibit autophagy activity in a spatiotemporal manner are not available. We investigated whether the AnkB peptide can block autophagy in a tissue- and temporal-specific manner. The AnkB peptide was expressed under the control of tissue-specific promoters, including the promoter of myo-3 for body wall muscle cells, y37A1B.5 for hypodermal cells and vha-6 for intestinal cells. The expression constructs were injected into animals carrying the corresponding tissue-specific SQST-1::GFP expression integrated lines.
We also examined whether the AnkB peptide can impair autophagy in a temporal control manner. The expression of AnkB WT was driven by the promoter of col-19, which is expressed in hypodermal cells from the young adult stage onwards.

LGG-1 = LGG-1 (Caenorhabditis elegans, UniProt Q09490); assay: ITC binding to purified LGG-1; set-up: species or system C. elegans
Chain of LGG-1 (Q09490 1-116 limits assumed): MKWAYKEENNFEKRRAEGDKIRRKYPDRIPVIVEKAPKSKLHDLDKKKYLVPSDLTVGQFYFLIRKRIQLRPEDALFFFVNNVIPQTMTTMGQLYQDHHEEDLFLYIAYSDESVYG
From the text: as §1

C. elegans [6] = assay: C. elegans life span; format: in vivo
From the text: Autophagy is known to regulate the adult worm aging process. […] The autophagy defect caused by AnkB was weaker than that in autophagy mutants.

C. elegans [7] = assay: C. elegans hatching and development; format: in vivo; details: Pnfya-1::Cherry fusion
From the text: Autophagy plays critical roles in various physiological processes occurring during development or in adult C. elegans (Zhang et al., 2015). Fewer autophagy mutants develop into larvae. […] 60.8% embryos expressing the AnkB WT peptide hatched, compared to 96.9% of embryos expressing AnkB WR (FIG. 8G). Autophagy mutants also grow slowly. […] Thus, the AnkB WT peptide blocks autophagy during C. elegans development.

[8] = test system: all members of the Atg8 family; assay: ITC binding to all members of the Atg8 family; set-up: species or system human
From the text: The 440 kD AnkB and 480 kD AnkG both contain a giant exon encoding several thousand amino acid residues, though the homology between the two giant exon coding sequences is very limited. The 440 kD AnkB is also a neuronal specific isoform, and is mainly expressed in unmyelinated/premyelinated axons.
Thus, we will not describe the overall structures of the two complexes any further, except to note that the AnkB LIR also contains a well-defined C-helix extension following the LIR core motif.

[9] = test system: GFP-RFP-LC3B puncta in COS7 cells; assay: Autophagosome marker co-localization in COS7 cells co-transfected with GFP-RFP-LC3B; format: cell-based; details: Myc tagged peptide, low expression level
From the text: We next tried to explore the potential applications of the Ank-derived peptides as autophagosome markers. The COS7 cells were co-transfected with GFP-RFP-LC3B and Myc tagged AnkB WT or AnkB WR peptides. […] LC3B are mainly localized on the autophagosome as vast majority of the puncta are both green and red (FIG. 11A).

LC3s (LC3A, LC3B, LC3C) [10] = details: recently identified LC3 binding sequence (Cheng et al., 2016; Olsvik et al., 2015); cited from earlier work

Molecule: CC[C@H](C)[C@H](NC(=O)[C@H](CCC(=O)O)NC(=O)[C@H](CCC(=O)O)NC(=O)[C@H](CO)NC(=O)[C@H](CO)NC(=O)[C@H](Cc1ccccc1)NC(=O)[C@H](CCC(=O)O)NC(=O)[C@@H](NC(=O)[C@H](Cc1c[nH]c2ccccc12)NC(=O)[C@H](CC(=O)O)NC(=O)[C@H](CC(=O)O)NC(=O)[C@H](CCC(=O)O)NC(=O)[C@@H]1CCCN1)[C@@H](C)O)C(=O)N[C@@H](CCCNC(=N)N)C(=O)N[C@@H](CCC(=O)O)C(=O)N[C@@H](C)C(=O)N[C@@H](CCCNC(=N)N)C(=O)N[C@@H](CCC(N)=O)C(=O)N[C@@H](C)C(=O)N[C@@H](C)C(=O)N[C@@H](C)C(=O)N[C@@H](CO)C(=O)N[C@@H](Cc1c[nH]cn1)C(=O)N[C@@H](C)C(=O)N1CCC[C@H]1C(=O)N[C@@H](CO)C(=O)O [AnkG LIR]
- binding to GABARAP stronger than almost all reported bindings between LIR motifs and Atg8s (GABARAP; ITC): ~1000 fold
- Kd (GABARAP; isothermal titration calorimetry (ITC)): ~2.6 nM and 2.6 nM
- weaker affinity towards LGG-2 than LGG-1 (LGG-2): about 130 fold
- GABARAP-positive puncta number [1]: potently inhibited
- Kd values of binding to the LC3s (LC3s (LC3A, LC3B, LC3C) [2]): hundreds to thousands
- binding to LC3 (in words) [3]: much weaker affinity than to GABARAPs
- LC3-positive puncta number [4]: only modestly reduced
- p62-positive puncta versus mCherry vector control [5]: obviously increased
- p62 puncta increase compared with AnkB WT peptide ([5]; COS7 cells): significantly lower
- SQST-1::GFP aggregates (SQST-1::GFP; Cherry fusion, hyp7 promoter, epidermis, embryonic to adult stages): caused accumulation of SQST-1::GFP aggregates
- SQST-1::GFP aggregates (SQST-1::GFP; Phyp7::mCherry::AnkG peptides, hypodermis, L4 larvae): a large number of SQST-1::GFP aggregates accumulate
- SQST-1::GFP aggregates (SQST-1::GFP; mCherry::AnkG peptides, embryonic stage (FIG. 10B-D)): accumulation of the SQST-1::GFP aggregates
- binding to LGG-1 (in words) (LGG-1): binds strongly

Molecule: AnkB W1592R: AnkB LIR with Trp1592 substituted by Arg; control for functional studies (VEEERVIVSDEEIEEARQKAPLEITEY; AnkB W1592R human recombinant peptide, prepared in the lab)
- Median lifespan (C. elegans [6]; Pmyo-3::ch:: fusion (muscle)): 18.72 days
- Median lifespan (C. elegans [6]; Pnfya-1::ch:: fusion (ubiquitous)): 19.15 days
- Median lifespan (C. elegans [6]; Pvha-6::ch:: fusion (intestine)): 18.13 days
- Median lifespan (C. elegans [6]; Py37a1b.5::ch:: fusion (hypodermal cells)): 18.63 days
- binding to LGG-2 (in words) (LGG-2; purified LGG-2): eliminated the bindings
- GABARAP-positive puncta number [1]: no impact
- embryos hatched (hatch rate) (C. elegans [7]): 96.9%
- LC3-positive puncta number [4]: no impact
- binding to Atg8 family members (in words) [8]: dramatically decreased
- localization relative to GFP-RFP-LC3B dual-color (autophagosome) puncta [9]: diffused in the cells
- p62-positive puncta versus mCherry vector control [5]: neither of the AnkB/G WR peptides could induce p62-positive puncta increase
- SQST-1::GFP aggregates (SQST-1::GFP; Cherry fusion, FIG. 8, embryo): no SQST-1::GFP aggregates
- SQST-1::GFP aggregates (SQST-1::GFP; Cherry fusion, FIG. 8, larvae): no SQST-1::GFP aggregates
- SQST-1::GFP aggregates (SQST-1::GFP; Cherry fusion, nfya-1 promoter (ubiquitous), multiple tissues, embryonic to adult stages): no SQST-1::GFP aggregates were formed
- SQST-1::GFP aggregates (SQST-1::GFP; mCherry fusion, hypodermal cells, embryo (FIG. 9)): no SQST-1::GFP aggregates
- SQST-1::GFP aggregates (SQST-1::GFP; mCherry fusion, hypodermis, L4 larvae (FIG. 9)): no SQST-1::GFP aggregates
- SQST-1::GFP aggregates (SQST-1::GFP; myo-3 promoter, muscle cells, L4 larvae): no SQST-1::GFP aggregates
- SQST-1::GFP aggregates (SQST-1::GFP; myo-3 promoter, muscle, embryo): no SQST-1::GFP
- SQST-1::GFP aggregates (SQST-1::GFP; tissue-specific promoters myo-3, y37A1B.5, vha-6, embryonic to adult stages): no accumulation
- SQST-1::GFP aggregates (SQST-1::GFP; vha-6 promoter, intestine cells, embryo): no SQST-1::GFP aggregates
- SQST-1::GFP aggregates (SQST-1::GFP; vha-6 promoter, intestine cells, larvae (FIG. 10S, 10T)): no SQST-1::GFP aggregates
- binding to LGG-1 (in words) (LGG-1): eliminated the bindings

Molecule: FYCO1 LIR: recently identified LC3 binding sequence from FYCO1 with a one-turn helix extension (DDAVFDIITDEELCQIQESGSSLPET; FYCO1 recombinant human sequence, prepared in lab)
- binding to LC3 compared with bindings of AnkB LIR to Atg8 (LC3s (LC3A, LC3B, LC3C) [10]): significantly weaker

Reference: US11229680B2, “Autophagy inhibitors” (The Hong Kong University of Science and Technology, priority 2017, dated 2022)
